Measured values published in patent publication US20070037205A1, “Methods and apparatus for cell based screening” (priority 2001, published 2007).

Test system: HT-29 cells
Test: HT-29 cytotoxicity assay (resazurin), with or without IFN-γ pretreatment
Format: cell-based, human
Details: IFN-γ treatment alone (data not shown)
Description: HT-29 cells (ATCC HTB-38) were cultured in McCoy's 5a Medium with 25 mM HEPES and supplemented with 10% fetal calf serum, 1× nonessential amino acids, 2 mM L-glutamine, 1 mM sodium pyruvate, 100 U/ml penicillin/100 ug/ml streptomycin (complete medium) at 37° C. in a humidified 5% CO2 cabinet. The cellular monolayer was washed with PBS and adherent cells were removed by treatment with 0.25% typsin/0.05% EDTA. The cells were collected by centrifugation and resuspended in complete medium. Cell number and viability was determined by Trypan Blue exclusion staining.
Duplicate plates of HT-29 cells were prepared by seeding cells into clear bottom, black walled 96 well tissue culture treated microplates (Corning 3904) at 5000 cells/well in a volume of 150 μl per well. […] Reduction of resazurin due to metabolic activity causes the dye to change from a non-fluorescent to fluorescent product that can be measured at 530 nm excitation and 590 nm emission wavelengths. Relative Fluorescent Units (RFU) was measured in a Fluoroskan Ascent microplate fluorometer (Thermo/Labsystems) in a bottom-read mode with excitation at 530 nm and emission at 590 nm. […]
Extracts that scored positive in the primary screen were evaluated for tumor cell death in a dose-dependent cytotoxicity assay. […] Inhibition of cellular growth was determined using resazurin indicator dye as described above. […]

Q: With “IFN-γ: recombinant human IFN-γ (R & D Systems), sensitizing agent” as the substance, how does the “growth inhibitory effect on HT-29 cells” value read?
A: no growth inhibitory effect
